The test system of data set [1] is D. immitis (Michigan strain). Put plainly: Efficacy of compounds in the D. immitis immunosuppressed rat model (third study, subcutaneous dosing). The format is in vivo.
Data set [2] relates to D. immitis (UGA susceptible strain). Description: Dog (oral) heartworm model, compiled dose correlation data. The format is in vivo.
Data set [3] deals with D. immitis (Michigan susceptible strain). Put plainly: Rat (SQ) heartworm model, compiled dose correlation data. The format is in vivo.
Another data set deals with D. immitis JYD-34 strain. Put plainly: Oral moxidectin in immunosuppressed rats infected with JYD-34 strain. To be noted: for Mean worm counts: geometric mean. The format is in vivo, rat.
For data set [4], the system named is D. immitis ZoeMI-01 (ZM1) strain. Put plainly: Oral moxidectin in immunosuppressed rats infected with ZoeMI-01 strain. In kind it is in vivo, rat. The conditions noted are these: for Mean worm counts: geometric mean.
The conditions of data set [5]: rat, in vivo.
[6] abbreviates: rat, SC 1.00 mg/kg day 30 post-inoculation, necropsy day 112-114.
[7] abbreviates: rat, SC 5.00 mg/kg day 30 post-inoculation, necropsy day 112-114.
[8] abbreviates: SQ 1 μg/kg, dosed month 1 post-inoculation.
Where [9] appears, read: rat, SC 0.001 mg/kg day 30 post-inoculation, necropsy day 112-114.
[10] abbreviates: rat, SC 0.003 mg/kg day 30 post-inoculation, necropsy day 112-114.
Setting [11] is: oral 3 μg/kg day 28, necropsy day 120.
Setting [12] is: oral 3 μg/kg days 28, 56, 84, necropsy day 120.
[13] abbreviates: oral 12 μg/kg day 28, necropsy day 120.
Where [14] appears, read: oral 24 μg/kg day 28, necropsy day 120.
Setting [15] is: n = 4, oral 3 μg/kg day 28, necropsy day 120.
The mark [16] stands for this setting: n = 4, oral 3 μg/kg days 28, 56, 84, necropsy day 120.
The mark [17] stands for this setting: n = 4, oral 24 μg/kg day 28, necropsy day 120.

Where “and” joins values, the source holds several entries; their conditions need not be identical. Equal entries are not always repeated.

Turning to `CC(C)C[C@H]1C(=O)O[C@H](Cc2ccc(N3CCOCC3)cc2)C(=O)N(C)[C@@H](CC(C)C)C(=O)O[C@H](C)C(=O)N(C)[C@@H](CC(C)C)C(=O)O[C@H](Cc2ccc(N3CCOCC3)cc2)C(=O)N(C)[C@@H](CC(C)C)C(=O)O[C@H](C)C(=O)N1C` [EMO, emodepside], the “Mean worm count (range)” value in data set [1] (arithmetic mean, rat, SC 1.00 mg/kg day 30 post-inoculation, necropsy day 112-114) is recorded as 1.8; in data set [1] (arithmetic mean, rat, SC 5.00 mg/kg day 30 post-inoculation, necropsy day 112-114), 0. In data set [1] (rat model, dose not stated), this molecule had a prevention of heartworm of 100%. Moreover, the “# rats with infection (n = 6)” value in data set [1] (setting [6]) turned out to be 3; in data set [1] (setting [7]), 0. Also, the “% Efficacy” value in data set [1] (setting [6]) is given as 75.6%; in data set [1] (setting [7]), 100%; in data set [2] (oral 1 μg/kg, dosed month 1 post-inoculation), 58%; in data set [2] (oral 3 μg/kg, dosed month 1 post-inoculation), 88%; in data set [2] (oral 5 μg/kg, dosed month 1 post-inoculation), 97%; in data set [2] (oral 10 μg/kg, dosed month 1 post-inoculation), 97%. The “% Efficacy” value in data set [3] (setting [8]) is reported as 76%; in data set [3] (SQ 5 μg/kg, dosed month 1 post-inoculation), 100%. Moreover, the “# of Ag+” value in data set [1] (rat, in vivo, sc, 1 mg/kg) is given as 1; in data set [1] (rat, in vivo, sc, 5 mg/kg) it was 1.
As for `CC[C@H](C)[C@H]1O[C@]2(CC[C@@H]1C)C[C@@H]1C[C@@H](C/C=C(\C)[C@@H](O[C@H]3C[C@H](OC)[C@@H](O[C@H]4C[C@H](OC)[C@@H](O)[C@H](C)O4)[C@H](C)O3)[C@@H](C)/C=C/C=C3\CO[C@@H]4[C@H](O)C(C)=C[C@@H](C(=O)O1)[C@]34O)O2` [IVM, ivermectin], the efficacy in data set [1] (rat, in vivo) came to 96.5%. In data set [1] (rat, in vivo, sc, 0.001 mg/kg), the “# of Ag+” value came out at 2, the “# rats with infection (n = 6)” value worked out at 5, the “% Efficacy” value is on record as 89.3% and the “Mean worm count (range)” value is 0.8. Also, in data set [1] (rat, in vivo, sc, 0.003 mg/kg), the “# of Ag+” value is on record as 2, the “# rats with infection (n = 6)” value was 1, the “% Efficacy” value was determined as 96.5% and the “Mean worm count (range)” value was found to be 0.3. In data set [2] (in vivo, po), the “% Efficacy” value is 53% and 83-97% and 98% and 100% and 64%. In data set [3] (in vivo), the “% Efficacy” value is 89% and 97-100% and 100%.
On to `CO/N=C1\C[C@]2(C[C@@H]3C[C@@H](C/C=C(\C)C[C@@H](C)/C=C/C=C4\CO[C@@H]5[C@H](O)C(C)=C[C@@H](C(=O)O3)[C@]45O)O2)O[C@H](/C(C)=C/C(C)C)[C@H]1C` [MOX, moxidectin], for which the “Mean worm count (range)” value in data set [1] (arithmetic mean, rat, SC 0.001 mg/kg day 30 post-inoculation, necropsy day 112-114) was 0.67; in data set [1] (arithmetic mean, rat, SC 0.003 mg/kg day 30 post-inoculation, necropsy day 112-114) it was 0. Moreover, the efficacy in data set [1] (rat model, at their use-dose) is given as 100%. Further, the “# rats with infection (n = 6)” value in data set [1] (setting [9]) is given as 4; in data set [1] (setting [10]), 0. Also, the “% Efficacy” value in data set [1] (setting [9]) is listed as 91.7%; in data set [1] (setting [10]) it was 100%; with D. immitis JYD-34 strain (setting [11]), 0%; with D. immitis JYD-34 strain (setting [12]) it was 38%; in the data set with D. immitis JYD-34 strain (setting [13]), 28%; in the data set with D. immitis JYD-34 strain (setting [14]) it was 87%. In addition, the “% Efficacy” value was 81% in data set [4] (setting [11]); 100% in data set [4] (setting [12]); 100% in data set [4] (setting [13]); 100% in data set [4] (setting [14]); 100% in data set [2] (oral 0.5 μg/kg, dosed month 2 post-inoculation); 100% in data set [2] (oral 0.625 μg/kg, dosed month 2 post-inoculation). In addition, the “% Efficacy” value in data set [2] (oral 1.25 μg/kg, dosed months 1, 2 post-inoculation) is 100%; in data set [3] (setting [8]) it was 92%; in data set [3] (SQ 3 μg/kg, dosed month 1 post-inoculation), 100%. In addition, the “# of Ag+” value was found to be 1 in data set [1] (rat, in vivo, sc, 0.001 mg/kg) and 0 in data set [1] (rat, in vivo, sc, 0.003 mg/kg). The Mean worm counts is 6.0 with D. immitis JYD-34 strain (setting [11]); 2.4 with D. immitis JYD-34 strain (setting [12]); 2.8 in the data set with D. immitis JYD-34 strain (setting [13]); 0.5 in the data set on D. immitis JYD-34 strain (setting [14]); 1.1 in data set [4] (setting [11]); 0 in data set [4] (setting [12]). In addition, the Mean worm counts in data set [4] (setting [13]) and in data set [4] (setting [14]) was 0 throughout. Moreover, the “Number of rats infected” value with D. immitis JYD-34 strain (n = 4, one rat died pre-necropsy, oral 12 μg/kg day 28, necropsy day 120) was “*3”; in the data set with D. immitis JYD-34 strain (setting [15]) it was 4; in the data set on D. immitis JYD-34 strain (setting [16]), 4; in the data set on D. immitis JYD-34 strain (setting [17]), 1; in data set [4] (setting [15]), 3; in data set [4] (setting [16]) it was 0. Moreover, the “Number of rats infected” value was found to be 0 in data set [4] (n = 4, oral 12 μg/kg day 28, necropsy day 120) and 0 in data set [4] (setting [17]).
Regarding `CC(=O)OCC(=O)[C@@]1(O)CC[C@H]2[C@@H]3CCC4=CC(=O)CC[C@]4(C)[C@H]3[C@@H](O)C[C@@]21C` [hydrocortisone, hydrocortisone acetate], in data set [5], the mortality result is “increased incidence of mortality”.

The record behind these values is patent publication US20250000069A1, “ANTHELMINTIC LABORATORY ANIMAL MODEL FOR HEARTWORM” (priority 2019, published 2025).
